The assay concerns the target T1, His-EBNA1 (DNA binding domain of EBNA1, amino acids 459-607) (Epstein-Barr virus, UniProt P03211).
T1 construct: made in house; host or cells: E. coli
Put plainly: Inhibition of 5′-biotin-oPL4624 binding to His-EBNA1 using Alpha Screen technology. The conditions noted are these: Alpha Screen Activity (IC50, inhibition of 5′-biotin-oPL4624 binding to His-EBNA1), 15 nM His-EBNA1, 0.2 nM bt-oPL4624, 2 hr room temperature. An outline of the steps:
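His-tagged EBNA1 DNA-binding domain (aa 459-607, E. coli-expressed) at 15 nM with 0.2 nM biotinylated self-complementary oligo, streptavidin donor and nickel acceptor beads, in 25 mM Tris pH 7.2, 160 mM NaCl, 1 mM MgCl2. Compound 3.2 nM-100 μM final; AlphaScreen read after 2 h at room temperature, one-site dose-response fit.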
T1 sequence (P03211 459-607): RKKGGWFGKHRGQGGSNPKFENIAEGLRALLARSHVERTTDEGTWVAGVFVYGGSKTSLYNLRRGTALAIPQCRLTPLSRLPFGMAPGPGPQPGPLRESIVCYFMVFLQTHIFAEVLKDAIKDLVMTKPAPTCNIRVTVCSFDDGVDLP
With `O=C(O)c1cccc(C#Cc2ccccc2)c1-c1ccc2nc[nH]c2c1` [Entry 150, 2-(1H-1,3-benzodiazol-6-yl)-3-(2-phenylethynyl)benzoic acid], the IC50 lay within 10 to 100 µM.
Molecule `NS(=O)(=O)c1cccc(C#Cc2ccccc2)c1-n1cccc1` [Entry 152, 3-Phenylethynyl-2-pyrrol-1-yl-benzenesulfonamide] registered a half-inhibitory concentration (IC50) of 1 to 10 µM.
For `CC(=O)NS(=O)(=O)c1cccc(C#Cc2ccccc2)c1-n1cccc1` [Entry 153, N-Acetyl-3-phenylethynyl-2-pyrrol-1-yl-benzenesulfonamide] the value was 10 to 100 µM; for `Cc1noc(C)c1-c1c(C#Cc2ccccc2)cccc1C(=O)O` [Entry 154, 2-(dimethyl-1,2-oxazol-4-yl)-3-(2-phenylethynyl)benzoic acid], 1 to 10 µM; for `O=C(O)c1cccc(C#Cc2ccccc2)c1OCc1ccccc1` [Entry 155, 2-(benzyloxy)-3-(2-phenylethynyl)benzoic acid], 10 to 100 µM.
Take `COC(=O)c1c[nH]c2cc(-c3c(C#Cc4ccccc4)cccc3C(=O)O)ccc12` [Entry 156, 2-[3-(methoxycarbonyl)-1H-indol-6-yl]-3-(2-phenylethynyl)benzoic acid]: the IC50 was 1 to 10 µM.
For `O=C(O)c1cccc(C#CCNCc2ccccc2)c1-c1ccccc1` [Entry 157, 3-[3-(benzylamino)prop-1-yn-1-yl]-2-phenylbenzoic acid], the IC50 was 10 to 100 µM.
The molecule `O=C(O)c1cccc(C#CCNCCCn2ccnc2)c1-c1ccccc1` [Entry 158, 3-(3-{[3-(1H-imidazol-1-yl)propyl]amino}prop-1-yn-1-yl)-2-phenylbenzoic acid] returned an IC50 of 10 to 100 µM.
The molecule `O=C(O)c1cccc(C#CCN2CCN(c3ccccc3)CC2)c1-c1ccccc1` [Entry 159, 2-phenyl-3-[3-(4-phenylpiperazin-1-yl)prop-1-yn-1-yl]benzoic acid] yielded an IC50 of 10 to 100 µM.
With `O=C(O)c1cccc(C#CCN2CCCC2)c1-c1ccccc1` [Entry 160, 2-phenyl-3-[3-(pyrrolidin-1-yl)prop-1-yn-1-yl]benzoic acid], the concentration for half-maximal inhibition (IC50) fell in the range of 10 to 100 µM.
Molecule `O=C(O)c1cccc(C#CCO)c1-c1ccccc1` [Entry 161, 3-(3-hydroxyprop-1-yn-1-yl)-2-phenylbenzoic acid] returned an IC50 of 100 to 1000 µM.
`NCc1cccc(C#Cc2cccc(C(=O)O)c2-n2cccc2)c1` [Entry 162, 3-{2-[3-(Aminomethyl)phenyl]ethynyl}-2-(1H-pyrrol-1-yl)benzoic acid] displayed an IC50 of 1 to 10 µM.
`O=C(O)c1cccc(C#Cc2cccc(CNS(=O)(=O)c3cc(F)cc(F)c3)c2)c1-n1cccc1` [Entry 163, 3-{2-[3-(3,5-difluorobenzenesulfonamidomethyl)phenyl]ethynyl}-2-(1H-pyrrol-1-yl)benzoic acid] displayed an IC50 of 1 to 10 µM.
For `Cc1ncc(S(=O)(=O)NCc2ccc(C#Cc3cccc(C(=O)O)c3-n3cccc3)cc2)n1C` [Entry 164] the value was 1 to 10 µM; for `O=C(O)c1cccc(C#Cc2cccc(CNS(=O)(=O)C3CC3)c2)c1-n1cccc1` [Entry 165, 3-{2-[3-(cyclopropanesulfonamidomethyl)phenyl]ethynyl}-2-(1H-pyrrol-1-yl)benzoic acid], less than 1 µM; for `COc1cccc(-c2c(C#Cc3c[nH]c4ncccc34)cccc2C(=O)O)c1` [Entry 166, 2-(3-methoxyphenyl)-3-(2-{1H-pyrrolo[2,3-b]pyridin-3-yl}ethynyl)benzoic acid], 10 to 100 µM.
In the case of `Cn1ncc2ccc(-c3c(C#Cc4c[nH]c5ncccc45)cccc3C(=O)O)cc21` [Entry 167, 2-(1-methyl-1H-indazol-6-yl)-3-(2-{1H-pyrrolo[2,3-b]pyridin-3-yl}ethynyl)benzoic acid], the IC50 lay in the range of 10 to 100 µM.
In turn, `Cc1nc2cc(-c3c(C#Cc4c[nH]c5ncccc45)cccc3C(=O)O)ccc2s1` [Entry 168, 2-(2-methyl-1,3-benzothiazol-5-yl)-3-(2-{1H-pyrrolo[2,3-b]pyridin-3-yl}ethynyl)benzoic acid] returned an IC50 of 10 to 100 µM.
Molecule `Cn1ncc2ccc(-c3c(C#Cc4cscn4)cccc3C(=O)O)cc21` [Entry 170] displayed an IC50 of 1 to 10 µM.
`Cn1ccc2cc(-c3c(C#Cc4cscn4)cccc3C(=O)O)ccc21` [Entry 171]: the IC50 fell in the range of 1 to 10 µM.
Molecule `O=C(O)c1cccc(C#Cc2cscn2)c1-c1ccncc1` [Entry 172] displayed a 50% inhibitory concentration (IC50) of 10 to 100 µM.
For the molecule `Cc1nc2cc(-c3c(C#Cc4cscn4)cccc3C(=O)O)ccc2s1` [Entry 173], the IC50 fell in the range of 10 to 100 µM.
Regarding `O=C(O)c1cccc(C#Cc2ccncc2)c1-c1c[nH]c2ccccc12` [Entry 174, 2-(1H-indol-3-yl)-3-[2-(pyridin-4-yl)ethynyl]benzoic acid], the 50% inhibitory concentration (IC50) lay in the range of 1 to 10 µM.
For `CN(C)c1ccc(-c2c(C#Cc3ccncc3)cccc2C(=O)O)cc1` [Entry 175, 2-[4-(dimethylamino)phenyl]-3-[2-(pyridin-4-yl)ethynyl]benzoic acid], the IC50 fell in the range of 10 to 100 µM.
For `CN1CCOc2cc(-c3c(C#Cc4ccncc4)cccc3C(=O)O)ccc21` [Entry 176, 2-(4-methyl-3,4-dihydro-2H-1,4-benzoxazin-7-yl)-3-[2-(pyridin-4-yl)ethynyl]benzoic acid] the value was 10 to 100 µM; for `O=C(O)c1cccc(C#Cc2ccncc2)c1-c1ccccc1` [Entry 177, 2-phenyl-3-[2-(pyridin-4-yl)ethynyl]benzoic acid], 100 to 1000 µM.
For the molecule `O=C(O)c1cccc(C#Cc2cc(C(=O)O)c3cc[nH]c3c2)c1` [Entry 178, 6-(3-carboxy-phenylethynyl)-1H-indole-4-carboxylic acid], the 50% inhibitory concentration (IC50) lay in the range of 1 to 10 µM.
Molecule `NC(=O)c1cc(C#Cc2cccc(C(=O)O)c2)cc2[nH]ccc12` [Entry 179, 3-(4-carbamoyl-1H-indol-6-ylethynyl)-benzoic acid] had an IC50 of 1 to 10 µM.
Molecule `NC(=O)c1cccc(C#Cc2cccc(C(=O)O)c2)c1` [Entry 180, 3-(3-carbamoyl-phenylethynyl)-benzoic acid] displayed an IC50 of less than 1 µM.
Turning to `O=C(O)c1cccc(C#Cc2cn(S(=O)(=O)c3ccccc3)c3ccccc23)c1` [Entry 181, 3-(1-benzenesulfonyl-1H-indol-3-ylethynyl)-benzoic acid], the IC50 lay within 10 to 100 µM.
For `O=C(O)c1cccc(C#Cc2c[nH]c3ccccc23)c1` [Entry 182, 3-(1H-indol-3-ylethynyl)-benzoic acid], the IC50 lay within 10 to 100 µM.
For the molecule `COC(=O)c1cccc(C#Cc2cccc(C(=O)O)c2)c1` [Entry 183, 3-(3-carboxy-phenylethynyl)-benzoic acid methyl ester], the 50% inhibitory concentration (IC50) was 100 to 1000 µM.
For `COc1cc(C#Cc2cccc(C(=O)O)c2)cc(C(N)=O)c1` [Entry 184, 3-(3-carbamoyl-5-methoxy-phenylethynyl)-benzoic acid], the IC50 is 10 to 100 µM.
In turn, `COc1ccc(-c2c(C#Cc3ccncc3)cccc2C(=O)O)cc1O` [Entry 185, 3′-hydroxy-4′-methoxy-6-pyridin-4-ylethynyl-biphenyl-2-carboxylic acid] showed an IC50 of 100 to 1000 µM.
The figure for `COc1cc(O)cc(-c2c(C#Cc3ccncc3)cccc2C(=O)O)c1` [Entry 186, 5′-hydroxy-3′-methoxy-6-pyridin-4-ylethynyl-biphenyl-2-carboxylic acid] is 10 to 100 µM; for `O=C(O)c1cccc(C#Cc2ccncc2)c1-c1cc[nH]n1` [Entry 187, 2-(1H-pyrazol-3-yl)-3-pyridin-4-ylethynyl-benzoic acid] it is 10 to 100 µM.
